Experimental data reported in patent publication US11174251B2, “Compositions and methods for inhibition of the JAK pathway” (Rigel Pharmaceuticals, Inc., priority 2010, dated 2021).
Where a name gives a salt, the structure may show the parent alone.

Target: T1, JAK3 (Homo sapiens, UniProt P52333)
T1 construct: The Ramos B-cell line was acquired from ATCC (ATCC Catalog No. CRL-1596); host or cells: Ramos B-cell line (human)
T1 sequence (P52333 1-1124): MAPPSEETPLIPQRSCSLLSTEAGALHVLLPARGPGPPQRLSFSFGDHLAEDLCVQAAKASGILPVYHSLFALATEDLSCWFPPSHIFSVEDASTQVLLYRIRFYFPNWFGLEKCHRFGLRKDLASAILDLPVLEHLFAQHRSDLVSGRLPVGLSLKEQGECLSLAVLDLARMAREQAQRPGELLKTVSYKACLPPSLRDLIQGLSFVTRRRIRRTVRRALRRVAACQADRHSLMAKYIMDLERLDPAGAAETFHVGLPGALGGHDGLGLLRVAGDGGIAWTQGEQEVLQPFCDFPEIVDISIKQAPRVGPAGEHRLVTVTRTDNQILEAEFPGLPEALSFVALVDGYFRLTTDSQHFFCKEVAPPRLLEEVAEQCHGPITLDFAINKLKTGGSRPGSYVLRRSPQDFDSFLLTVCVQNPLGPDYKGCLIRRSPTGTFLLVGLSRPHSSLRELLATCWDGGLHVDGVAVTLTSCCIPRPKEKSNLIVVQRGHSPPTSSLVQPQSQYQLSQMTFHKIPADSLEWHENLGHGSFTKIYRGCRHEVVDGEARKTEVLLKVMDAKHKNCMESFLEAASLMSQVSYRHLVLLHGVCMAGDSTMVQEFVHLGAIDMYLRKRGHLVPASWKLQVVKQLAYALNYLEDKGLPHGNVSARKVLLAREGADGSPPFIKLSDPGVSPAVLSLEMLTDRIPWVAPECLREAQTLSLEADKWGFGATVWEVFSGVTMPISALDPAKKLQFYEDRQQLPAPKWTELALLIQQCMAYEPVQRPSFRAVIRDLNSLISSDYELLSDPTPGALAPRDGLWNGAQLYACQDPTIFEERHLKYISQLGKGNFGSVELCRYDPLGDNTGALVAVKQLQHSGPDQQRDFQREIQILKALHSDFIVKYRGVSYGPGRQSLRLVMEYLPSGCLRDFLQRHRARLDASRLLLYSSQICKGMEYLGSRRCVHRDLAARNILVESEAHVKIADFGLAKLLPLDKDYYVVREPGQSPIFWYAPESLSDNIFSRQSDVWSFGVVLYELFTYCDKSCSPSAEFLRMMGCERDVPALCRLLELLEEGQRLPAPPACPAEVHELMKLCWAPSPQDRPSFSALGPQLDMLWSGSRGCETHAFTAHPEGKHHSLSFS
Assay: Assay for CD23 expression on Ramos B-cells stimulated by IL-4 (Table IV: ability to inhibit JAK3 activity)
Type: cell-based
Details: tested under conditions described in Example 3 (so in the source)
From the text: One means of assaying for such inhibition is detection of the effect of the 2,4-pyrimidinediamine compounds on the upregulation of downstream gene products. In the Ramos/IL4 assay, B-cells are stimulated with the cytokine Interleukin-4 (IL-4) leading to the activation of the JAK/Stat pathway through phosphorylation of the JAK family kinases, JAK1 and JAK3, which in turn phosphorylate and activate the transcription factor Stat-6. […] To study the effect of inhibitors (for example, the 2,4-substituted pyrimindinediamine compounds described herein) on the JAK1 and JAK3 kinases, human Ramos B cells are stimulated with human IL-4. 20 to 24 hours post stimulation, cells are stained for upregulation of CD23 and analyzed using FACS.
B-cells stimulated with cytokine Interleukin-4 (IL-4) activate the JAK/Stat pathway through phosphorylation of the JAK family kinases, JAK-1 and JAK-3, which in turn phosphorylate and activate the transcription factor Stat-6. […] To study the effect of inhibitors on the JAK family kinases, human Ramos B cells were stimulated with human IL-4 and the surface expression of CD23 was measured.
The day before the experiment, Ramos B-cells were diluted to 3.5×10^5 cells/mL to ensure that they were in a logarithmic growth phase.
Cells were spun down and suspended in RPMI with 5% serum. 5×10^4 cells were used per point in a 96-well tissue culture plate. Cells were pre-incubated with compound or DMSO (Sigma-Aldrich, St. Louis, Mo., Cat No. D2650) vehicle control for 1 hour in a 37° C. incubator. Cells were then stimulated with IL-4 (Peprotech Inc., Rocky Hill, N.J., Cat No. 200-04) for a final concentration of 50 units/mL for 20-24 hours. […] Detection was performed using a BD LSR I System Flow Cytometer, purchased from Becton Dickinson Biosciences of San Jose, Calif.
The compound designations in Table IV are consistent with those of Tables I-II above.

SMILES | IC50
COC(=O)c1cnc(Nc2ccc(C(N)=O)cc2)nc1Nc1ccc2oc(=O)[nH]c2c1 [Compound I-54, 2-(4-Carbamoyl-phenylamino)-4-(2-oxo-2,3-dihydro-benzooxazol-5-ylamino)-pyrimidine-5-carboxylic acid methyl ester trifluoroacetate salt] | > 10000 nM
COC(=O)c1cnc(Nc2cc(OC)cc(C(F)(F)F)c2)nc1Nc1ccc2oc(=O)[nH]c2c1 [Compound I-55, 2-(3-Methoxy-5-trifluoromethyl-phenylamino)-4-(2-oxo-2,3-dihydro-benzooxazol-5-ylamino)-pyrimidine-5-carboxylic acid methyl ester trifluoroacetate salt] | > 10000 nM
COC(=O)c1cnc(Nc2ccc(C)c(OC)c2)nc1Nc1ccc2oc(=O)[nH]c2c1 [Compound I-56, 2-(3-Methoxy-4-methyl-phenylamino)-4-(2-oxo-2,3-dihydro-benzooxazol-5-ylamino)-pyrimidine-5-carboxylic acid methyl ester trifluoroacetate salt] | > 10000 nM
COC(=O)c1cnc(Nc2ccc(C)c(N(C)C)c2)nc1Nc1ccc2oc(=O)[nH]c2c1 [Compound I-57, 2-(3-Dimethylamino-4-methyl-phenylamino)-4-(2-oxo-2,3-dihydro-benzooxazol-5-ylamino)-pyrimidine-5-carboxylic acid methyl ester trifluoroacetate salt] | > 10000 nM
COC(=O)c1cnc(Nc2cc(C)c(F)c(OC)c2)nc1Nc1ccc2oc(=O)[nH]c2c1 [Compound I-58, 2-(4-Fluoro-3-methoxy-5-methyl-phenylamino)-4-(2-oxo-2,3-dihydro-benzooxazol-5-ylamino)-pyrimidine-5-carboxylic acid methyl ester trifluoroacetate salt] | > 10000 nM
COC(=O)c1cnc(Nc2cc(C)c(C)c(OC)c2)nc1Nc1ccc2oc(=O)[nH]c2c1 [Compound I-59, 2-(3-Methoxy-4,5-dimethyl-phenylamino)-4-(2-oxo-2,3-dihydro-benzooxazol-5-ylamino)-pyrimidine-5-carboxylic acid methyl ester trifluoroacetate salt] | > 10000 nM
NC(=O)c1ccc(Nc2ncc([N+](=O)[O-])c(Nc3ccc4oc(=O)[nH]c4c3)n2)cc1 [Compound I-60, 4-(5-nitro-4-(2-oxo-2,3-dihydrobenzo[d]oxazol-5-ylamino)pyrimidin-2-ylamino)benzamide trifluoroacetate salt] | > 10000 nM
COCCOc1c(C)ccc(Nc2nccc(Nc3ccc4oc(=O)[nH]c4c3)n2)c1F [Compound I-62, 5-(2-(2-fluoro-3-(2-methoxyethoxy)-4-methylphenylamino)pyrimidin-4-ylamino)benzo[d]oxazol-2(3H)-one] | 500 to 5000 nM
CCc1ccc(Nc2ncc(Cl)c(Nc3ccc4oc(=O)[nH]c4c3)n2)c(F)c1OC [Compound I-71, 5-(5-chloro-2-(4-ethyl-2-fluoro-3-methoxyphenylamino)pyrimidin-4-ylamino)benzo[d]oxazol-2(3H)-one trifluoroacetate salt] | < 500 nM
Cc1cnc(Nc2cccc(C#N)c2F)nc1Nc1ccc2oc(=O)[nH]c2c1 [Compound I-72, 2-fluoro-3-(5-methyl-4-(2-oxo-2,3-dihydrobenzo[d]oxazol-5-ylamino)pyrimidin-2-ylamino)benzonitrile trifluoroacetate salt] | < 500 nM
N#Cc1cccc(Nc2ncc(Cl)c(Nc3ccc4oc(=O)[nH]c4c3)n2)c1F [Compound I-73, 3-(5-chloro-4-(2-oxo-2,3-dihydrobenzo[d]oxazol-5-ylamino)pyrimidin-2-ylamino)-2-fluorobenzonitrile trifluoroacetate salt] | < 500 nM
COC(=O)c1cnc(Nc2cc(C)c(F)c(C)c2)nc1Nc1ccc2oc(=O)[nH]c2c1 [Compound I-74, methyl 2-(4-fluoro-3,5-dimethylphenylamino)-4-(2-oxo-2,3-dihydrobenzo[d]oxazol-5-ylamino)pyrimidine-5-carboxylate trifluoroacetate salt] | 5000 to 10000 nM
COc1ccc(Nc2ncc(C)c(Nc3ccc4oc(=O)[nH]c4c3)n2)c(F)c1 [Compound I-75, 5-(2-(2-fluoro-4-methoxyphenylamino)-5-methylpyrimidin-4-ylamino)benzo[d]oxazol-2(3H)-one trifluoroacetate salt] | < 500 nM

Second part, the compound after the results:

IC50 | SMILES
< 500 nM | COc1cc(Nc2ncc(Cl)c(Nc3ccc4oc(=O)[nH]c4c3)n2)cc(C)c1C [Compound I-52, 5-(5-chloro-2-(3-methoxy-4,5-dimethylphenylamino)pyrimidin-4-ylamino)benzo[d]oxazol-2(3H)-one]
< 500 nM | COCCOc1c(C)ccc(Nc2ncc(C)c(Nc3ccc4oc(=O)[nH]c4c3)n2)c1F [Compound I-53, 5-{2-[2-Fluoro-3-(2-methoxy-ethoxy)-4-methyl-phenylamino]-5-methyl-pyrimidin-4-ylamino}-3H-benzooxazol-2-one]
< 500 nM | COCCOc1c(C)ccc(Nc2ncc(F)c(Nc3ccc4oc(=O)[nH]c4c3)n2)c1F [Compound I-61, 5-(5-fluoro-2-(2-fluoro-3-(2-methoxyethoxy)-4-methylphenylamino)pyrimidin-4-ylamino)benzo[d]oxazol-2(3H)-one trifluoroacetate salt]
< 500 nM | Cc1cnc(Nc2cc(C)c(C#N)c(C)c2)nc1Nc1ccc2oc(=O)[nH]c2c1 [Compound I-64, 2,6-Dimethyl-4-[5-methyl-4-(2-oxo-2,3-dihydro-benzooxazol-5-ylamino)-pyrimidin-2-ylamino]-benzonitrile trifluoroacetate salt]
< 500 nM | C=Cc1cccc(Nc2ncc(C)c(Nc3ccc4oc(=O)[nH]c4c3)n2)c1 [Compound I-65, 5-[5-Methyl-2-(3-vinyl-phenylamino)-pyrimidin-4-ylamino]-3H-benzooxazol-2-one trifluoroacetate salt]
< 500 nM | COCCOc1c(C)ccc(Nc2ncc(Cl)c(Nc3ccc4oc(=O)[nH]c4c3)n2)c1F [Compound I-66, 5-(5-chloro-2-(2-fluoro-3-(2-methoxyethoxy)-4-methylphenylamino)pyrimidin-4-ylamino)benzo[d]oxazol-2(3H)-one trifluoroacetate salt]
< 500 nM | COc1c(C)ccc(Nc2ncc(Cl)c(Nc3ccc4oc(=O)[nH]c4c3)n2)c1F [Compound I-67, 5-(5-chloro-2-(2-fluoro-3-methoxy-4-methylphenylamino)pyrimidin-4-ylamino)benzo[d]oxazol-2(3H)-one]
< 500 nM | CCc1ccc(Nc2ncc(C)c(Nc3ccc4oc(=O)[nH]c4c3)n2)c(F)c1OC [Compound I-68, 5-[2-(4-Ethyl-2-fluoro-3-methoxy-phenylamino)-5-methyl-pyrimidin-4-ylamino]-3H-benzooxazol-2-one trifluoroacetate salt]
< 500 nM | Cc1cc(Nc2ncc(Cl)c(Nc3ccc4oc(=O)[nH]c4c3)n2)cc(C)c1C#N [Compound I-69, 4-(5-chloro-4-(2-oxo-2,3-dihydrobenzo[d]oxazol-5-ylamino)pyrimidin-2-ylamino)-2,6-dimethylbenzonitrile] trifluoroacetate salt]
< 500 nM | Cc1cc(Nc2ncc(F)c(Nc3ccc4oc(=O)[nH]c4c3)n2)cc(C)c1C#N [Compound I-70, 4-(5-fluoro-4-(2-oxo-2,3-dihydrobenzo[d]oxazol-5-ylamino)pyrimidin-2-ylamino)-2,6-dimethylbenzonitrile]
